The experiment relates to MV-4-11 cells. Description: AML cell viability assay (RealTime-Glo). The settings on record: Homo sapiens, read-out: Cell viability classification. The class given is cell-based.
Where [1] appears, read: MV4-11, IC50 class, MV-4-11 cells, RealTime-Glo after 44 hrs of treatment (TABLE 4).
Setting [2] is: MV4-11, IC50 class, MV-4-11 cells, RealTime-Glo after 44 hrs of treatment (TABLE 2).
[3] abbreviates: MV4-11, IC50 class, MV-4-11 cells, RealTime-Glo after 44 hrs of treatment (TABLE 5).
Where [4] appears, read: MV4-11, IC50 class, MV-4-11 cells, RealTime-Glo after 44 hrs of treatment (TABLE 1).

Counter-ions that a name gives are not always drawn. Like-named read-outs stand apart in the source and are kept apart here.

On to `O=C1CCC(N2Cc3c(cccc3N(CCC3CC3)[C@H]3CC[C@H](c4nnc[nH]4)CC3)C2=O)C(=O)N1` (stereo partly shown) [Compound 574, 3-{4-[(2-cyclopropylethyl)[(1r,4r)-4-(4H-1,2,4-triazol-3-yl)cyclohexyl]amino]-1-oxo-3H-isoindol-2-yl}piperidine-2,6-dione; formate], for which the IC50 under setting [1] is 100 to 1000 nM. For the molecule `CCCCCN(CCCCNC(=O)CC1CCCCC1)c1cccc2c1CN(C1CCC(=O)NC1=O)C2=O` (stereo not shown) [Compound 151, 2-cyclohexyl-N-(4-((2-(2,6-dioxopiperidin-3-yl)-1-oxoisoindolin-4-yl)(pentyl)amino)butyl)acetamide], the IC50 under setting [2] is more than 1000 nM. `O=C1CCC(N2Cc3c(cccc3N(CCC3CC3)C3CCC4(CC3)COCCN4)C2=O)C(=O)N1` (stereo not shown) [Compound 679, 3-(4-((2-cyclopropylethyl)(4-oxa-1-azaspiro[5.5]undecan-9-yl)amino)-1-oxoisoindolin-2-yl)piperidine-2,6-dione]: the IC50 under setting [3] fell in the range of 100 to 1000 nM. On to `N[C@H]1CC[C@H](N(CCCC2CCCOC2)c2cccc3c2CN(C2CCC(=O)NC2=O)C3=O)CC1` (stereo partly shown) [Compound 340, 3-(4-(((1r,4r)-4-aminocyclohexyl)(3-(tetrahydro-2H-pyran-3-yl)propyl)amino)-1-oxoisoindolin-2-yl)piperidine-2,6-dione, HCl], for which the IC50 under setting [4] is 100 to 1000 nM. For `NCCCCN(c1cccc2c1CN(C1CCC(=O)NC1=O)C2=O)[C@H]1CC[C@H](CN)CC1` (stereo partly drawn) [Compound 105, 3-(4-((4-aminobutyl)((1R,4R)-4-(aminomethyl)cyclohexyl)amino)-1-oxoisoindolin-2-yl)piperidine-2,6-dione, 2HCl], the IC50 under setting [2] was in the range of 100 to 1000 nM. Regarding `O=C1CCC(N2Cc3c(cccc3N(CCC3CC3)[C@H]3CC[C@H](NCC(F)(F)C(F)(F)F)CC3)C2=O)C(=O)N1` (stereo partly shown) [Compound 644], the IC50 under setting [3] is more than 1000 nM. On to `O=C1CCC(N2Cc3c(cccc3N(CCC3(C(F)(F)F)CC3)[C@H]3CC[C@@H](NC4CC(F)(F)C4)CC3)C2=O)C(=O)N1` (stereo partly shown) [Compound 554A, 3-(4-(((1s,4s)-4-((3,3-difluorocyclobutyl)amino)cyclohexyl)(2-(1-(trifluoromethyl)cyclopropyl)ethyl)amino)-1-oxoisoindolin-2-yl)piperidine-2,6-dione], for which the IC50 under setting [1] was in the range of 100 to 1000 nM. As to `NCCCCN(C[C@H]1CC[C@H](N)CC1)c1cccc2c1CN(C1CCC(=O)NC1=O)C2=O` (stereo partly shown) [Compound 107, 3-(4-((4-aminobutyl)(((1r,4r)-4-aminocyclohexyl)methyl)amino)-1-oxoisoindolin-2-yl)piperidine-2,6-dione, HCl], the IC50 under setting [2] fell in the range of 100 to 1000 nM. On to `O=C1CCC(N2Cc3c(cccc3N(CCCCC(F)(F)F)[C@H]3CC[C@@H](NCCC(F)(F)F)CC3)C2=O)C(=O)N1` (stereo partly shown) [Compound 636A, 3-(1-oxo-4-{[(1s,4s)-4-[(3,3,3-trifluoropropyl)amino]cyclohexyl](5,5,5-trifluoropentyl)amino}-3H-isoindol-2-yl)piperidine-2,6-dione; trifluoroacetate], for which the IC50 under setting [1] is more than 1000 nM. Turning to `CCCN(CCCN)c1cccc2c1CN(C1CCC(=O)NC1=O)C2=O` (stereo not shown) [Compound 53, 3-(4-((3-aminopropyl)(propyl)amino)-1-oxoisoindolin-2-yl)piperidine-2,6-dione], the IC50 under setting [4] was in the range of 100 to 1000 nM. Regarding `O=C1CCC(N2Cc3c(cccc3N(CCC3CC3)[C@H]3CC[C@H](NCC(F)(F)F)CC3)C2=O)C(=O)N1` (stereo partly shown) [Compound 580, 3-{4-[(2-cyclopropylethyl)[(1r,4r)-4-[(2,2,2-trifluoroethyl)amino]cyclohexyl]amino]-1-oxo-3H-isoindol-2-yl}piperidine-2,6-dione], the IC50 under setting [1] was more than 1000 nM. Regarding `N[C@H]1CC[C@H](N(CCCC2CCCO2)c2cccc3c2CN(C2CCC(=O)NC2=O)C3=O)CC1` (stereo partly shown) [Compound 346, 3-(4-(((1r,4r)-4-aminocyclohexyl)(3-(tetrahydrofuran-2-yl)propyl)amino)-1-oxoisoindolin-2-yl)piperidine-2,6-dione, HCl], the IC50 under setting [4] lay in the range of 100 to 1000 nM. With `C[C@H]1CC[C@@H](N(c2cccc3c2CN(C2CCC(=O)NC2=O)C3=O)[C@H]2CC[C@H](N)CC2)CC1` (stereo partly drawn) [Compound 331, 3-(4-(((1r,4R)-4-aminocyclohexyl)((1s,4S)-4-methylcyclohexyl)amino)-1-oxoisoindolin-2-yl)piperidine-2,6-dione], where the note is “MV4-11, IC50 class, MV-4-11 cells, RealTime-Glo after 44 hrs of treatment (TABLE 3)”, the IC50 was more than 1000 nM. On to `C[C@H]1CC[C@@H](N(c2cccc3c2CN(C2CCC(=O)NC2=O)C3=O)[C@@H]2CC[C@H](N)C2)CC1` (stereo partly drawn) [Compound 354, 3-(4-(((1R,3S)-3-aminocyclopentyl)((1s,4S)-4-methylcyclohexyl)amino)-1-oxoisoindolin-2-yl)piperidine-2,6-dione], for which, under setting [4], the IC50 is more than 1000 nM. Consider `CCCCCN(CCCCNC(=O)CC(C)C)c1cccc2c1CN(C1CCC(=O)NC1=O)C2=O` (stereo not shown) [Compound 149, N-(4-((2-(2,6-dioxopiperidin-3-yl)-1-oxoisoindolin-4-yl)(pentyl)amino)butyl)-3-methylbutanamide], for which the IC50 (MV4-11, 44 h) was more than 1000 nM. In the case of `O=C1CCC(N2Cc3c(cccc3N(CCCC3CCOCC3)[C@@H]3CC[C@H](NCC4CC4)C3)C2=O)C(=O)N1` (stereo partly drawn) [Compound 356, 3-(4-(((1R,3S)-3-((cyclopropylmethyl)amino)cyclopenty 1)(3-(tetrahydro-2H-pyran-4-yl)propyl)amino)-1-oxoisoindolin-2-yl)piperidine-2,6-dione], the IC50 under setting [4] was less than 100 nM. For the molecule `CC(C)(CN)CCN(CCCCN)c1cccc2c1CN(C1CCC(=O)NC1=O)C2=O` (stereo not shown) [Compound 124, 3-(4-((4-amino-3,3-dimethylbutyl)(4-aminobutyl)amino)-1-oxoisoindolin-2-yl)piperidine-2,6-dione dihydrochloride], the IC50 under setting [2] is less than 100 nM.

`NC(=O)[C@H]1CC[C@@H](N(CCCC2CCOCC2)c2cccc3c2CN(C2CCC(=O)NC2=O)C3=O)C1` (stereo partly drawn) [Compound 361, (1S,3R)-3-((2-(2,6-dioxopiperidin-3-yl)-1-oxoisoindolin-4-yl)(3-(tetrahydro-2H-pyran-4-yl)propyl)amino)cyclopentane-1-carboxamide]: the IC50 under setting [4] was 100 to 1000 nM. As for `O=C1CCC(N2Cc3c(cccc3N(CCC3(C(F)(F)F)CC3)[C@H]3CC[C@H](NC4CC(F)(F)C4)CC3)C2=O)C(=O)N1` (stereo partly shown) [Compound 554, 3-(4-(((1r,4r)-4-((3,3-difluorocyclobutyl)amino)cyclohexyl)(2-(1-(trifluoromethyl)cyclopropyl)ethyl)amino)-1-oxoisoindolin-2-yl)piperidine-2,6-dione formate], the IC50 under setting [1] lay within 100 to 1000 nM. Regarding `CCN(CC)C(=O)CN[C@H]1CC[C@H](N(CCC2CC2)c2cccc3c2CN(C2CCC(=O)NC2=O)C3=O)CC1` (stereo partly shown) [Compound 562, N,N-diethyl-2-{[(1r,4r)-4-[(2-cyclopropylethyl)[2-(2,6-dioxopiperidin-3-yl)-1-oxo-3H-isoindol-4-yl]amino]cyclohexyl]amino}acetamide], under setting [1], the IC50 fell in the range of 100 to 1000 nM. In the case of `O=C1CCC(N2Cc3c(cccc3N(CCC3CC3)[C@H]3CC[C@@H](N4CCC(F)(F)CC4)CC3)C2=O)C(=O)N1` (stereo partly shown) [Compound 716A, 3-(4-((2-cyclopropylethyl)((1s,4s)-4-(4,4-difluoropiperidin-1-yl)cyclohexyl)amino)-1-oxoisoindolin-2-yl)piperidine-2,6-dione tris(2,2,2-trifluoroacetate)], the IC50 under setting [3] was more than 1000 nM. As for `CCCN(CCN)c1cccc2c1CN(C1CCC(=O)NC1=O)C2=O` (stereo not shown) [Compound 49, 3-(4-((2-aminoethyl)(propyl)amino)-1-oxoisoindolin-2-yl)piperidine-2,6-dione], under setting [4], the IC50 was more than 1000 nM.

On to `CCCCCN(CCC(C)(C)CN)c1cccc2c1CN(C1CCC(=O)NC1=O)C2=O` (stereo not shown) [Compound 123, 3-(4-((4-amino-3,3-dimethylbutyl)(pentyl)amino)-1-oxoisoindolin-2-yl)piperidine-2,6-dione hydrochloride], for which, under setting [2], the IC50 is less than 100 nM.

Take `NCCCCN(c1cccc2c1CN(C1CCC(=O)NC1=O)C2=O)[C@H]1CC[C@@H](N)CC1` (stereo partly drawn) [Compound 102, 3-(4-((4-aminobutyl)((1S,4S)-4-aminocyclohexyl)amino)-1-oxoisoindolin-2-yl)piperidine-2,6-dione dihydrochloride]: the IC50 under setting [2] is 100 to 1000 nM.

Regarding `CCCCCN(C[C@H]1CC[C@@H](N)CC1)c1cccc2c1CN(C1CCC(=O)NC1=O)C2=O` (stereo partly shown) [Compound 91, 3-(4-((((1s,4s)-4-aminocyclohexyl)methyl)(pentyl)amino)-1-oxoisoindolin-2-yl)piperidine-2,6-dione, HCl], the IC50 under setting [2] is less than 100 nM. As to `CCCN(c1cccc2c1CN(C1CCC(=O)NC1=O)C2=O)[C@H]1CC[C@H](NCCC(F)(F)F)CC1` (stereo partly shown) [Compound 648, 3-(1-oxo-4-{propyl[(1r,4r)-4-[(3,3,3-trifluoropropyl)amino]cyclohexyl]amino}-3H-isoindol-2-yl)piperidine-2,6-dione trifluoroacetic acid], the IC50 under setting [3] is less than 100 nM. On the same count and under the same terms, the same measure for `O=C1CCC(N2Cc3c(cccc3N(CCC3CC3)[C@H]3CC[C@H](NCCC4(C(F)(F)F)CC4)CC3)C2=O)C(=O)N1` (stereo partly shown) [Compound 645, 3-{4-[(2-cyclopropylethyl)[(1r,4r)-4-({2-[1-(trifluoromethyl)cyclopropyl]ethyl}amino)cyclohexyl]amino]-1-oxo-3H-isoindol-2-yl}piperidine-2,6-dione trifluoroacetic acid]: less than 100 nM. Turning to `O=C1CCC(N2Cc3c(cccc3N(CCCCC(F)(F)F)[C@H]3CC[C@H](NCC4(C(F)(F)F)CC4)CC3)C2=O)C(=O)N1` (stereo partly shown) [Compound 628, 3-(1-oxo-4-{[(1r,4r)-4-({[1-(trifluoromethyl)cyclopropyl]methyl}amino)cyclohexyl](5,5,5-trifluoropentyl)amino}-3H-isoindol-2-yl)piperidine-2,6-dione; trifluoroacetate], the IC50 under setting [1] lay in the range of 100 to 1000 nM.

For the origin of these results see US20250188069A1, “COMPOUNDS AND METHODS FOR DEGRADING CASEIN KINASE 1 ALPHA” (PIN THERAPEUTICS, INC., priority 2022, published 2025).
